Molecular target: T1, mu opiate receptor (MOR) (Rattus norvegicus, UniProt P33535)
T1 construct: from tissue; host or cells: striatal membrane preparation (rat striatum)
Experiment: MOR agonist activity, [35S]GTPγS binding assay using striatal membranes
Type: biochemical
Design: MOR agonist activity, [35S]GTPγS binding to Gαo: reference not given here
Conditions: 0.1 μM compound relative to DAMGO
Experimental: To assess the mu opiate receptor (MOR) agonist activity of positive compounds from the FLNA screening, compounds were tested in a [^35S]GTPγS binding assay using striatal membranes.
Striatal tissue was homogenized in 10 volumes of ice cold 25 mM HEPES buffer, pH 7.4, which contained 1 mM EGTA, 100 mM sucrose, 50 μg/ml leupeptin, 0.04 mM PMSF, 2 μg/ml soybean trypsin inhibitor and 0.2% 2-mercaptoethanol. The homogenates were centrifuged at 800×g for 5 minutes and the supernatants were centrifuged at 49,000×g for 20 minutes. The resulting pellets were suspended in 10 volume of reaction buffer, which contained 25 mM HEPES, pH 7.5, 100 mM NaCl, 50 μg/ml leupeptin, 2 μg/ml soybean trypsin inhibitor, 0.04 mM PMSF and 0.02% […].
The resultant striatal membrane preparation (200 μg) was admixed and maintained (incubated) at 30° C. for 5 minutes in reaction buffer as above that additionally contained 1 mM MgCl2 and 0.5 nM [^35S]GTPγS (0.1 μCi/assay, PerkinElmer Life and Analytical Sciences) in a total volume of 250 μl and continued for 5 minutes in the absence or presence of 0.1-10 μM of an assayed compound of interest. The reaction was terminated by dilution with 750 μl of ice-cold reaction buffer that contained 20 mM MgCl2 and 1 mM EGTA and immediate centrifugation at 16,000×g for 5 minutes.
The resulting pellet was solubilized by sonicating for 10 seconds in 0.5 ml of immunoprecipitation buffer containing 0.5% digitonin, 0.2% sodium cholate and 0.5% NP-40. Normal rabbit serum (1 μl) was added to 1 ml of lysate and incubated at 25° C. for 30 minutes. Nonspecific immune complexes were removed by incubation with 25 μl of protein A/G-conjugated agarose beads at 25° C. for 30 minutes followed by centrifugation at 5,000×g at 4° C. for 5 minutes. The supernatant was divided and separately incubated at 25° C. for 30 minutes with antibodies raised against Gαo proteins (1:1,000 dilutions).
The immunocomplexes so formed were collected by incubation at 25° C. for 30 minutes with 40 μl of agarose-conjugated protein A/G beads and centrifugation at 5,000×g at 4° C. for 5 minutes. The pellet was washed and suspended in buffer containing 50 mM Tris-HCl, pH 8.0, and 1% NP-40. The radioactivity in the suspension was determined by liquid scintillation spectrometry. […] DAMGO (H-Tyr-D-Ala-Gly-N-MePhe-Gly-OH; 1 or 10 μM) was used as a positive control.

T1 sequence (P33535 whole entry): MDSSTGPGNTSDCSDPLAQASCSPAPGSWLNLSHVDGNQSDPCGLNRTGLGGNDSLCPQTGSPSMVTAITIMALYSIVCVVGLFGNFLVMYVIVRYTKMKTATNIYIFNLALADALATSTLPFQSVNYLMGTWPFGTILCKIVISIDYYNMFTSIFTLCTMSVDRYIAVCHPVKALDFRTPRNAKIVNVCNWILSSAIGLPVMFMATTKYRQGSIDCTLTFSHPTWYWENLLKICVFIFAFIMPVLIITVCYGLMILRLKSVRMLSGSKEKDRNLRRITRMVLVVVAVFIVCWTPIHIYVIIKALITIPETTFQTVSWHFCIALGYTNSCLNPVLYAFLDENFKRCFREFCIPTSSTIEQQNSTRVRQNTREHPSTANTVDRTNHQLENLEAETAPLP

| SMILES | % DAMGO (0.1 μM) |
| --- | --- |
| COc1ccc(S(=O)(=O)N2CCOC23CCN(C(=O)OC(C)(C)C)CC3)cc1 [Compound C0043] | 103.8% |

Same assay, conditions: 0.1 μM compound, striatal membranes

| SMILES | MOR agonist activity, [35S]GTPγS binding to Gαo |
| --- | --- |
| COc1ccc(S(=O)(=O)N2CCOC23CCN(C(=O)OC(C)(C)C)CC3)cc1 [Compound C0043] | 175.4% |
| CCN1CCC2(CC1)OCCN2S(=O)(=O)c1ccc(C(C)=O)cc1 [Compound C0094M] | 172.5% |
| CC(=O)c1ccc(S(=O)(=O)N2CCOC23CCN(CC2CC2)CC3)cc1 [Compound C0095M] | 189.1% |
| C=CCN1CCC2(CC1)OCCN2S(=O)(=O)c1ccc(C(C)=O)cc1 [Compound C0096M] | 186.4% |
| CCOC(=O)CN1CCC2(CC1)OCCN2S(=O)(=O)c1ccc(C(C)=O)cc1 [Compound C0099M] | 157.2% |
| CC(=O)c1ccc(S(=O)(=O)N2CCOC23CCN(CC(=O)O)CC3)cc1 [Compound C0100M] | 173.6% |
| CCCCN1CCC2(CC1)OCCN2S(=O)(=O)c1ccc(C(C)=O)cc1 [Compound C0101M] | 138.2% |
| CCCCN1CCC2(CC1)OCCN2S(=O)(=O)c1ccc(OC)cc1 [Compound C0102M] | 131.8% |
| CN1CCC2(CC1)NC(=O)CN2Cc1ccccc1 [Compound C0104M] | 188.2% |
| CN1CCC2(CC1)NCC(=O)N2Cc1ccccc1 [Compound C0105M] | 198.1% |
| CN1CCC2(CC1)OCCN2S(=O)(=O)c1ccc(S(C)(=O)=O)cc1 [Compound C0106M] | 171.8% |
| CC(=O)c1ccc(S(=O)(=O)N2CC(CN(C)C)OC23CCN(C)CC3)cc1 (stereo not drawn) [Compound C0108M] | 205.6% |
| O=C1CNC2(CCNCC2)N1Cc1ccccc1 [Compound C0114M] | 114.0% |

Same assay, conditions: 1 μM compound + BFNA (1 μM β-funaltrexamine)

| SMILES | MOR agonist activity, [35S]GTPγS binding to Gαo |
| --- | --- |
| COc1ccc(S(=O)(=O)N2CCOC23CCN(C(=O)OC(C)(C)C)CC3)cc1 [Compound C0043] | 83.3% |
| CCN1CCC2(CC1)OCCN2S(=O)(=O)c1ccc(C(C)=O)cc1 [Compound C0094M] | 115.3% |
| CC(=O)c1ccc(S(=O)(=O)N2CCOC23CCN(CC2CC2)CC3)cc1 [Compound C0095M] | 107.7% |
| C=CCN1CCC2(CC1)OCCN2S(=O)(=O)c1ccc(C(C)=O)cc1 [Compound C0096M] | 127.1% |
| CCOC(=O)CN1CCC2(CC1)OCCN2S(=O)(=O)c1ccc(C(C)=O)cc1 [Compound C0099M] | 114.7% |
| CC(=O)c1ccc(S(=O)(=O)N2CCOC23CCN(CC(=O)O)CC3)cc1 [Compound C0100M] | 195.6% |
| CCCCN1CCC2(CC1)OCCN2S(=O)(=O)c1ccc(C(C)=O)cc1 [Compound C0101M] | 174.8% |
| CCCCN1CCC2(CC1)OCCN2S(=O)(=O)c1ccc(OC)cc1 [Compound C0102M] | 150.4% |
| CN1CCC2(CC1)NC(=O)CN2Cc1ccccc1 [Compound C0104M] | 143.8% |
| CN1CCC2(CC1)NCC(=O)N2Cc1ccccc1 [Compound C0105M] | 73.1% |
| CN1CCC2(CC1)OCCN2S(=O)(=O)c1ccc(S(C)(=O)=O)cc1 [Compound C0106M] | 117.2% |
| CC(=O)c1ccc(S(=O)(=O)N2CC(CN(C)C)OC23CCN(C)CC3)cc1 (stereo not drawn) [Compound C0108M] | 76.9% |
| O=C1CNC2(CCNCC2)N1Cc1ccccc1 [Compound C0114M] | 35.9% |

Same assay, conditions: 1 μM compound + BFNA relative to DAMGO + BFNA

| SMILES | % DAMGO + BFNA |
| --- | --- |
| COc1ccc(S(=O)(=O)N2CCOC23CCN(C(=O)OC(C)(C)C)CC3)cc1 [Compound C0043] | 501.8% |

Same assay, conditions: 1 μM compound relative to DAMGO

| SMILES | % DAMGO (1 μM) |
| --- | --- |
| COc1ccc(S(=O)(=O)N2CCOC23CCN(C(=O)OC(C)(C)C)CC3)cc1 [Compound C0043] | 110.9% |

Same assay, conditions: 1 μM compound, striatal membranes

| SMILES | MOR agonist activity, [35S]GTPγS binding to Gαo |
| --- | --- |
| COc1ccc(S(=O)(=O)N2CCOC23CCN(C(=O)OC(C)(C)C)CC3)cc1 [Compound C0043] | 242.6% |
| CCN1CCC2(CC1)OCCN2S(=O)(=O)c1ccc(C(C)=O)cc1 [Compound C0094M] | 263.5% |
| CC(=O)c1ccc(S(=O)(=O)N2CCOC23CCN(CC2CC2)CC3)cc1 [Compound C0095M] | 224.6% |
| C=CCN1CCC2(CC1)OCCN2S(=O)(=O)c1ccc(C(C)=O)cc1 [Compound C0096M] | 328.9% |
| CCOC(=O)CN1CCC2(CC1)OCCN2S(=O)(=O)c1ccc(C(C)=O)cc1 [Compound C0099M] | 195.7% |
| CC(=O)c1ccc(S(=O)(=O)N2CCOC23CCN(CC(=O)O)CC3)cc1 [Compound C0100M] | 245.9% |
| CCCCN1CCC2(CC1)OCCN2S(=O)(=O)c1ccc(C(C)=O)cc1 [Compound C0101M] | 274.3% |
| CCCCN1CCC2(CC1)OCCN2S(=O)(=O)c1ccc(OC)cc1 [Compound C0102M] | 272.0% |
| CN1CCC2(CC1)NC(=O)CN2Cc1ccccc1 [Compound C0104M] | 238.9% |
| CN1CCC2(CC1)NCC(=O)N2Cc1ccccc1 [Compound C0105M] | 220.3% |
| CN1CCC2(CC1)OCCN2S(=O)(=O)c1ccc(S(C)(=O)=O)cc1 [Compound C0106M] | 240.7% |
| CC(=O)c1ccc(S(=O)(=O)N2CC(CN(C)C)OC23CCN(C)CC3)cc1 (stereo not drawn) [Compound C0108M] | 258.5% |
| O=C1CNC2(CCNCC2)N1Cc1ccccc1 [Compound C0114M] | 144.3% |

Molecular target: Bn-VAKGL pentapeptide of filamin A (FLNA) (Homo sapiens, UniProt P21333)
Experiment: FITC-NLX-based FLNA screening assay (FLNA peptide binding assay)
Conditions: 0.01 μM compound, 10 nM FITC-NLX
Experimental: The final assay volume is 100 μl.
Compounds are tested in triplicate or quadruplicate.

| SMILES | Percent inhibition of FITC-NLX binding |
| --- | --- |
| COc1ccc(S(=O)(=O)N2CCOC23CCN(C(=O)OC(C)(C)C)CC3)cc1 [Compound C0043] | 43.9% |

Same assay, conditions: 0.1 μM compound, 10 nM FITC-NLX

| SMILES | Percent inhibition of FITC-NLX binding |
| --- | --- |
| COc1ccc(S(=O)(=O)N2CCOC23CCN(C(=O)OC(C)(C)C)CC3)cc1 [Compound C0043] | 51.3% |

Same assay, conditions: 1 μM compound, 10 nM FITC-NLX

| SMILES | Percent inhibition of FITC-NLX binding |
| --- | --- |
| COc1ccc(S(=O)(=O)N2CCOC23CCN(C(=O)OC(C)(C)C)CC3)cc1 [Compound C0043] | 58.0% |

From US8614324B2, “Filamin A binding anti-inflammatory and analgesic” (priority 2008, dated 2013)
